The values below come from PubChem BioAssay (NCI).

Some test systems named below: CCRF-CEM leukemia; DLD-1 colon; HCT-15 colon; HL-60(TB) leukemia; HT29 colon; MALME-3M melanoma; MOLT-4 leukemia; NCI-H226 lung; SK-OV-3 ovarian; SNB-19 CNS; UO-31 renal; ACHN renal.
Test in all cases: inhibition of tumour cell growth, NCI panel, 48 h

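Test compounds were applied to cells in 96-well plates for 48 hours at 5 doses. Definition used: TGI = concentration required for complete inhibition of growth.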 Some results are limits rather than exact numbers.

`CN1OC(=O)N(C)C1c1ccccc1` (configuration not stated): the TGI in the test on CCRF-CEM leukemia, in the test with DLD-1 colon, in the test with HCT-15 colon, with HL-60(TB) leukemia, with HT29 colon and with MALME-3M melanoma was > 100 µM in each case. Besides, the TGI in the test on MOLT-4 leukemia, in the test on NCI-H226 lung, in the test with SK-OV-3 ovarian, in the test on SNB-19 CNS and in the test on UO-31 renal was > 100 µM in each case.

Consider `Nc1ccn(C2OC(COP(=O)(O)Oc3ccccc3)C(O)C2O)c(=O)n1` (configuration not stated), for which the TGI in the test on CCRF-CEM leukemia, in the test on DLD-1 colon, in the test with HCT-15 colon, in the test with HL-60(TB) leukemia, with HT29 colon and in the test with MALME-3M melanoma was > 100 µM throughout. The TGI in the test with MOLT-4 leukemia, in the test on NCI-H226 lung, in the test with SK-OV-3 ovarian, with SNB-19 CNS and in the test on UO-31 renal was > 100 µM in each case.

As for `COc1cc(CC2c3cc(OC)c(OC)cc3CCN2C)c(Oc2cc3c(cc2OC)-c2c(OC)c(OC)c(OC)c4c2C(C3)N(C)CC4)cc1OC` (configuration not stated), the TGI in the test on ACHN renal was 30.9 µM; in the test on CCRF-CEM leukemia, > 50.9 µM; in the test with DLD-1 colon it was 29.8 µM; in the test on HCT-15 colon, 23.4 µM; with HL-60(TB) leukemia, > 100 µM; in the test on HT29 colon, > 36.5 µM. The TGI is 6.67 µM with MALME-3M melanoma; > 42.5 µM with MOLT-4 leukemia; 32.7 µM in the test with NCI-H226 lung; 35 µM in the test with SK-OV-3 ovarian; 43.3 µM with SNB-19 CNS; 22.1 µM in the test on UO-31 renal.

On to `CCN(CC)CCNc1ccc(C)c2sc3ccc(O)cc3c(=O)c12`, for which the TGI in the test on ACHN renal came out at 1.63 µM; in the test on CCRF-CEM leukemia it was 1.06 µM; with DLD-1 colon, 3.47 µM; in the test on HCT-15 colon it was 2.72 µM; in the test with HL-60(TB) leukemia, 0.979 µM; with HT29 colon it was 3.24 µM. For the same molecule, the TGI in the test with MALME-3M melanoma was 2.38 µM; with MOLT-4 leukemia, 1.16 µM; with NCI-H226 lung it was 2 µM; in the test with SK-OV-3 ovarian, 5.59 µM; in the test with SNB-19 CNS, 15.6 µM; in the test on UO-31 renal it was 3.82 µM.

Take `C=C1C(=O)OC2/C=C(\C)C(O)/C=C\C(C)(O)CC(OC(=O)/C(C)=C/C)C12` (configuration not stated): the TGI in the test on ACHN renal is 54.1 µM; in the test on CCRF-CEM leukemia, > 61.7 µM; in the test on DLD-1 colon, 28.3 µM; in the test with HCT-15 colon, 33.8 µM; with HL-60(TB) leukemia it was > 64 µM; in the test on HT29 colon, > 100 µM. Besides, the TGI was 40.4 µM in the test with MALME-3M melanoma; 53.8 µM in the test on MOLT-4 leukemia; > 100 µM in the test with NCI-H226 lung; > 100 µM with SK-OV-3 ovarian; 98.8 µM in the test with SNB-19 CNS; > 100 µM in the test on UO-31 renal.

On to `COc1cc2c(cc1OC)C(Cl)C(c1cc(OC)c(OC)c(OC)c1)=C2Cl` (configuration not stated), for which the TGI came out at 28.8 µM in the test on ACHN renal; 40.7 µM with CCRF-CEM leukemia; 51.4 µM in the test with DLD-1 colon; 49.4 µM in the test with HCT-15 colon; 44.3 µM with HL-60(TB) leukemia; 30.3 µM with HT29 colon. Besides, the TGI in the test on MALME-3M melanoma stood at 30.6 µM; in the test on MOLT-4 leukemia it was 29.9 µM; in the test on NCI-H226 lung it was 41.4 µM; in the test on SK-OV-3 ovarian, 56.2 µM; in the test with SNB-19 CNS, 37.2 µM; with UO-31 renal, 27.1 µM.

As for `Cc1ccc2[nH]c3c(C)c4ccncc4c(C)c3c2c1`, the TGI is 2.28 µM with ACHN renal; 3.74 µM in the test with CCRF-CEM leukemia; 2.34 µM with DLD-1 colon; 2.22 µM in the test with HCT-15 colon; 3.42 µM in the test on HL-60(TB) leukemia; 2.58 µM in the test with HT29 colon. Moreover, the TGI in the test on MALME-3M melanoma was determined as 4.16 µM; with MOLT-4 leukemia, 1.95 µM; in the test with NCI-H226 lung it was 7.59 µM; in the test on SK-OV-3 ovarian it was 4.38 µM; in the test with SNB-19 CNS, 2.62 µM; with UO-31 renal it was 3.03 µM.
